Read-outs that look alike come from different tables or passages of the source.
Tested on: P. falciparum Dd2 (PfLuc) line expressing firefly luciferase, asexual blood stage
Test: microbe, parasite or virus in culture
Assay type: cell-based, Plasmodium falciparum
Details: Plasmodium falciparum
[1] = DD2, 8-pt dose response, 96hr, read-out: P. falciparum Luciferase ABS 8-pt Reconfirmation Dose Response (96hr): IC50
[2] = DD2, 8-pt dose response, 96hr, read-out: P. falciparum Luciferase ABS 8-pt Reconfirmation Dose Response (96hr): Maximum inhibition (%)
[3] = DD2, 8-pt dose response, 96hr, read-out: CDD P. falciparum Luciferase ABS 8-pt Reconfirmation Dose Response (96hr): IC50
[4] = DD2, 8-pt dose response, 96hr, read-out: CDD P. falciparum Luciferase ABS 8-pt Reconfirmation Dose Response (96hr): Maximum inhibition (%)
[5] = DD2, read-out: P. falciparum Luciferase ABS 11-pt Reconfirmation Dose Response (48hr): IC50, 11-pt dose response, 48hr
[6] = DD2, 11-pt dose response, 48hr, read-out: P. falciparum Luciferase ABS 11-pt Reconfirmation Dose Response (48hr): Maximum inhibition (%)
[7] = DD2, 11-pt dose response, 96hr, read-out: P. falciparum Luciferase ABS 11-pt Reconfirmation Dose Response (96hr): IC50
[8] = DD2, 11-pt dose response, 96hr, read-out: P. falciparum Luciferase ABS 11-pt Reconfirmation Dose Response (96hr): Maximum inhibition (%)

| SMILES | IC50 [1] | Emax [2] | further results |
| --- | --- | --- | --- |
| Cc1ccc(C(C)NCCc2nccn2Cc2ccccc2)o1 (centres unmarked) [DDD01065613] | 1.62 µM | 82.8% |  |
| CCC(NCc1ccccc1C)c1ccccc1OCC(=O)NC (centres unmarked) [DDD01075651] |  |  | IC50 (DD2, read-out: CDD P. falciparum Luciferase ABS 11-pt Reconfirmation Dose Response (48hr): IC50 (μM), 11-pt dose response, 48hr): > 12.5 µM; IC50 [3]: 0.85 µM; Emax [4]: 76.9%; Emax (DD2, 11-pt dose response, 48hr, read-out: CDD P. falciparum Luciferase ABS 11-pt Reconfirmation Dose Response (48hr): Maximum inhibition (%)): 60.7%; IC50 (DD2, 11-pt dose response, 96hr, read-out: CDD P. falciparum Luciferase ABS 11-pt Reconfirmation Dose Response (96hr): IC50): 2.43 µM; Emax (DD2, 11-pt dose response, 96hr, read-out: CDD P. falciparum Luciferase ABS 11-pt Reconfirmation Dose Response (96hr): Maximum inhibition (%)): 84.1% |
| c1ccc2sc(N3CCCN(c4ncnc5c4CCNC5)CC3)nc2c1 [DDD01257073] | 1.83 µM | 84% |  |
| Cc1ccccc1CN(CCN(C)C)Cc1ccc(S(C)(=O)=O)cc1 [DDD01251767] | 1.52 µM | 76.8% |  |
| CCN(CC)C(CNC(=O)c1c(C)noc1C(C)C)c1ccsc1 (centres unmarked) [DDD01298744] |  |  | IC50 [3]: 0.96 µM; Emax [4]: 85.7% |
| COc1ccc(CN2CC[C@@H](O)[C@@H]2Cc2ccccc2)cc1 [DDD01037044] | 1.83 µM | 77.4% |  |
| C[C@@H]1CN(C(=O)C2CCS(=O)(=O)CC2)CC[C@@]1(O)C1CCOCC1 [DDD01250493] | 1.67 µM | 82.2% |  |
| Cc1cc(S(=O)(=O)NCC2CNCCOC2)c(C)cc1Cl (centres unmarked) [DDD01253448] | 1.24 µM | 89.3% | IC50 [5]: > 4.16 µM; Emax [6]: 24.9%; IC50 [7]: 1.64 µM; Emax [8]: 89% |
| CO[C@@H]1CCN(Cc2ccoc2)C[C@@H]1Cc1ccccc1 [DDD01081909] |  |  | IC50 [3]: 1.08 µM; Emax [4]: 85.9% |
| CC(C)(C)n1cc(C2=CCN(CCN3CCCCCC3)CC2)cn1 [DDD01248990] | 1.53 µM | 78.1% |  |
| CC(C)Oc1ccc(C(O)CNCc2ccccc2C(F)(F)F)cc1 (centres unmarked) [DDD01076007] | 1.5 µM | 80.1% |  |
| COc1ccccc1CCN1CCCC(CN(C)Cc2ccc(C)o2)C1 (centres unmarked) [DDD01250738] | 1.36 µM | 86.1% |  |
| CC(C)(NCc1cccc(O)c1)c1ccc2c(c1)OCO2 [DDD01063924] | 1.21 µM | 84.9% |  |
| CCC(NCc1ccccc1Cl)c1ccccc1OCC(=O)NC (centres unmarked) [DDD01075649] | 1.9 µM | 81.7% | IC50 [5]: > 12.5 µM; Emax [6]: 57.7%; IC50 [7]: 3.66 µM; Emax [8]: 86.1% |
| Clc1cc(CN2CCCN3CCCC3C2)c2ncccc2c1 (centres unmarked) [DDD01063271] | 1.74 µM | 93% |  |
| CCC1CN(C(=O)c2ccc(Cl)cc2O)CCN1C(C)C (centres unmarked) [DDD01258121] | 2.57 µM | 80.5% |  |
| CN1CCCC(c2cccc(Cc3ccccc3Cl)n2)C1 (centres unmarked) [DDD01270191] | 1.72 µM | 80.2% |  |
| O=S(=O)(NC[C@H]1C[C@@H]2CCN1C[C@@H]2CN1CCCC1)c1ccc(Cl)cc1 [DDD01024774] | 1.46 µM | 91% |  |
| CCC1CN(CC(=O)NCCN2CCCCCC2)c2ccccc2S1 (centres unmarked) [DDD01025851] | 1.73 µM | 82.5% |  |
| Fc1ccc(Sc2ccccc2CNC2=NCCN2)cc1 [DDD01035542] | 1.81 µM | 81.8% |  |
| CCN1CCC(CNCc2cc(C)ccc2OC)C1 (centres unmarked) [DDD01069824] | 1.26 µM | 90.1% |  |
| Cn1ccnc1CNC1CCCOc2c1ccc1ccccc21 (centres unmarked) [DDD01063614] | 1.52 µM | 80.3% |  |

— publication PMC7155171, “Probing the Open Global Health Chemical Diversity Library for Multistage-Active Starting Points for Next-Generation Antimalarials” (ACS Infectious Diseases, 2020)
